System: human myeloma cell line MM.1S
Assay: SILAC acetylated-lysine peptide profiling, HDAC inhibitor vs DMSO (light/heavy ratio)
Format: cell-based
Excerpt: An embodiment of the invention comprises utilizing the SILAC method in order to quantitate changes in protein expression between two or more populations of cells. The SILAC method is a technique based on mass spectrometry that detects differences in protein abundance among samples using non-radioactive isotopic labeling. The SILAC method is known in the art, and described in detail in Ong et al., “Stable Isotope Labeling by Amino Acids in Cell Culture, SILAC, as a Simple and Accurate Approach to Expression Proteomics”, Molecular & Cellular Proteomics, vol. 1, pp. 376-386 (2002), which is incorporated herein by reference in its entirety.
Briefly, the SILAC method involves growing two populations of cells in cell culture. The first population of cells is grown in growth media containing normal amino acids (“normal media”). The second population of cells is grown in media lacking a standard essential amino acid (such as lysine), but is then supplemented with a non-radioactive, isotopically labeled form of that essential amino acid (such as lysine labeled with ^13C atoms, rather than normal ^12C atoms), which is called “heavy media”. When the two populations of cells are each growing in the medium, they incorporate the amino acids into all of their proteins. The growth of cells maintained in the heavy media is no different from that in normal media. All peptides containing the heavy amino acids are heavier than their normal counterparts. The cells from each of the two populations of cells are lysed. The lysates from each of the two cell populations are then combined. The combined cell lysates are then analyzed by mass spectrometry. Pairs of chemically identical peptides of different stable isotope composition can be differentiated in a mass spectrometer due to their difference in mass. The ratio of peak intensities in the mass spectrum for such peptide pairs reflects the abundance ratio for the two proteins.
This example describes SILAC studies that were performed to compare the effects of three different HDAC inhibitors (Compound A, Compound B, and tubastatin A) to a control on a human multiple myeloma cell line. The HDAC inhibitors were also compared amongst themselves to determine differences in their effects.
A human myeloma cell line MM.1S was grown using either ^12C (light) or ^13C (heavy) lysine containing culture medium. The “heavy” cells were treated with DMSO as the control, and the “light” cells were treated with a single HDAC inhibitor at 37° C. for 6 hours. The heavy and light cells were lysed, and the lysates were mixed in 1:1 ratio and digested with the protease trypsin. The acetylated lysine containing peptides (due to the action of the HDAC inhibitor) in the digested peptide pool were captured by a non-specific anti-acetylated lysine antibody cocktail (the antibodies identify both light and heavy acetylated peptides), and subjected to mass spectrometry analysis in order to identify thousands of individual peptides.
Thousands of peptides were identified in pairs (^12C and ^13C) due to their known mass differences. The amino acid sequence and quantitative ratio (Light/Heavy) of a given peptide in two differentially treated cell lysates were then determined and annotated with their possible protein (gene) sources.
As stated above, three HDAC inhibitors (Compound A, Compound B, and Tubastatin A) were used. Thus, the SILAC method was performed three times, with a different HDAC inhibitor compared to a control each time. Accordingly, there are three pairs of quantitative data in the table below, i.e., Compound A:DMSO, Compound B:DMSO, and Tubastatin A:DMSO. A cut-off of 1.30 fold of change (increase or decrease) was then used to determine “changed” or “+” in the table, and any peptides with a fold of change less than 1.3 fold were determined to be “unchanged” or “0” in the table. Those peptides that were not identified were marked as “NA” in the table. […]

Q: For `O=C(CCCCCCNC(=O)c1cnc(N(c2ccccc2)c2ccccc2)nc1)NO` [Compound A, 2-(diphenylamino)-N-(7-(hydroxyamino)-7-oxoheptyl)pyrimidine-5-carboxamide], which “light to heavy ratio (L/H ratio), log 2 scale, acetylated peptide KLQK(ac)AALLK (SEQ ID NO: 806)” value (Ribosomal protein L14 variant [132], gene RPL14, drug:DMSO) is on record?
A: 1.00

Q: And the “light to heavy ratio (L/H ratio) of acetylated peptide […](ac)R (SEQ ID NO: 334)” value (S1 IF1 type family protein [56], EIF1AXP1, drug:DMSO)?
A: 0.00 log 2

Q: What about the “L/H ratio of acetylated peptide LAELK(ac)QECLAR (SEQ ID NO: 94)” value (SARNP 17], log 2 scale, drug vs DMSO) of the same compound?
A: 0.00

Q: And the “L/H ratio of acetylated peptide (ac)ATETVELHK(ac)LK (SEQ ID NO: 93)” value (SARNP [10], log 2 scale, drug vs DMSO)?
A: 0.00

Q: What about the “L/H ratio of acetylated peptide ANLVFK(ac)EIEK (SEQ ID NO: 95)” value (SCP2 [438], log 2 scale, drug vs DMSO) of the same compound?
A: 0.00

Q: And the “L/H ratio of acetylated peptide EGQNWLEK(ac)K (SEQ ID NO: 96)” value (SEC11C [147], log 2 scale, drug vs DMSO)?
A: 0.00

Q: What about the “L/H ratio of acetylated peptide EHTALLK(ac)IEGVYAR” value (SEQ ID NO: 630, 60S ribosomal protein L35a [29], RPL35A) of the same compound?
A: 0.49 log 2

Q: And the “L/H ratio of acetylated peptide FNDGSDEK(ac)KK” value (SEQ ID NO: 631, ATP synthase subunit alpha mitochondrial [239], ATP5A1)?
A: 0.49 log 2

Q: And the “L/H ratio of acetylated peptide FSK(ac)[…]” value (SEQ ID NO: 632, X-ray repair cross-complementing protein 5 [144], XRCC5)?
A: 0.50 log 2

Q: And the “L/H ratio of acetylated peptide LTCEEEEEK(ac)IFGR” value (SEQ ID NO: 633, Isoform Short of Probable global transcription activator SNF2L2 [1302], SMARCA2)?
A: 0.51 log 2

Q: And the “L/H ratio of acetylated peptide NDEELNK(ac)LLGR” value (SEQ ID NO: 634, Histone H2A type 1-B/E [96], HIST1H2AE, HIST1H2AB, HIST1H2AD, HIST1H2AG, HIST1H2AK, HIST1H2AL, HIST1H2AM, HIST1H2AJ, HIST1H2AI)?
A: 0.52 log 2

Q: And the “L/H ratio of acetylated peptide ALEAVFGK(ac)YGR” value (SEQ ID NO: 635, Heterogeneous nuclear ribonucleoprotein G [30], RBMX)?
A: 0.52 log 2

Q: And the “L/H ratio of acetylated peptide TFK(ac)[…]” value (SEQ ID NO: 636, 60S ribosomal protein L3 [103], SNORD43, RPL3)?
A: 0.52 log 2

Q: What about the “L/H ratio of acetylated peptide YK(ac)[…]” value (SEQ ID NO: 637, Protein disulfide-isomerase [328], P4HB) of the same compound?
A: 0.52 log 2

Q: And the “L/H ratio of acetylated peptide NAEK(ac)YAEEDRR” value (SEQ ID NO: 638, Stress-70 protein mitochondrial [567], HSPA9)?
A: 0.52 log 2

Q: What about the “L/H ratio of acetylated peptide […](ac)DR” value (SEQ ID NO: 639, pyruvate dehydrogenase E1 component subunit alpha somatic form mitochondrial isoform 2 precursor [359], PDHA1) of the same compound?
A: 0.53 log 2

Q: What about the “L/H ratio of acetylated peptide GVDPK(ac)FLR” value (SEQ ID NO: 640, Ribosomal protein L29 [38], RPL29, RPL29P4) of the same compound?
A: 0.53 log 2

Q: And the “L/H ratio of acetylated peptide LIK(ac)DGLIIR” value (SEQ ID NO: 641, 60S ribosomal protein L19 [46], RPL19)?
A: 0.53 log 2

Q: What about the “L/H ratio of acetylated peptide HLLPK(ac)IR” value (SEQ ID NO: 642, 6-phosphogluconate dehydrogenase decarboxylating [253], PGD) of the same compound?
A: 0.53 log 2

Q: What about the “L/H ratio of acetylated peptide LGK(ac)PSLVR” value (SEQ ID NO: 643, TOB3 [280], ATAD3B) of the same compound?
A: 0.53 log 2

Q: And the “L/H ratio of acetylated peptide EQIYK(ac)LAK” value (SEQ ID NO: 644, 40S ribosomal protein S13 [39], RPS13)?
A: 0.54 log 2

Q: And the “L/H ratio of acetylated peptide VEYFLK(ac)WK” value (SEQ ID NO: 645, Chromobox protein homolog 3 [50], CBX3)?
A: 0.54 log 2

Q: And the “L/H ratio of acetylated peptide HYK(ac)TDFDK” value (SEQ ID NO: 646, Isocitrate dehydrogenase [NADP] mitochondrial [275], IDH2)?
A: 0.54 log 2

Q: And the “L/H ratio of acetylated peptide EGYAWAEDK(ac)EHCEEYGR” value (SEQ ID NO: 647, tRNA-splicing ligase RtcB homolog [190], C22orf28)?
A: 0.54 log 2

Q: And the “L/H ratio of acetylated peptide LAYIAHPK(ac)LGK” value (SEQ ID NO: 648, Ribosomal protein L29 [103], RPL29, RPL29P4)?
A: 0.55 log 2

Q: What about the “L/H ratio of acetylated peptide IFSQETLTK(ac)AQILK” value (SEQ ID NO: 649, Prenylcysteine oxidase 1 [415], PCYOX1) of the same compound?
A: 0.55 log 2

Q: And the “L/H ratio of acetylated peptide […](ac)QNK” value (SEQ ID NO: 650, Dihydrolipoyl dehydrogenase mitochondrial [143], DLD)?
A: 0.55 log 2

Q: And the “L/H ratio of acetylated peptide FYVK(ac)DHR” value (SEQ ID NO: 651, CDGSH iron-sulfur domain-containing protein 1 [37], CISD1)?
A: 0.55 log 2

Q: What about the “L/H ratio of acetylated peptide SPVNTK(ac)SLFK” value (SEQ ID NO: 652, Isoform 1 of DNA-dependent protein kinase catalytic subunit [1057], PRKDC) of the same compound?
A: 0.55 log 2

Q: What about the “L/H ratio of acetylated peptide HIVK(ac)EFK” value (SEQ ID NO: 653, Stress-70 protein mitochondrial [288], HSPA9) of the same compound?
A: 0.56 log 2

Q: What about the “L/H ratio of acetylated peptide MYKEEGLK(ac)AFYK” value (SEQ ID NO: 654, Isoform A of Phosphate carrier protein mitochondrial [214], SLC25A3) of the same compound?
A: 0.56 log 2

Q: And the “L/H ratio of acetylated peptide LDAQVK(ac)ELVLK” value (SEQ ID NO: 655, Dolichyl-diphospho-oligosaccharide--protein glycosyltransferase subunit 1 precursor [598], RPN1)?
A: 0.56 log 2

Q: And the “L/H ratio of acetylated peptide GYPTLK(ac)[…]” value (SEQ ID NO: 656, Thioredoxin domain-containing protein 5 [140], TXNDC5, MUTED, MUTED-TXNDC5)?
A: 0.56 log 2

Q: What about the “L/H ratio of acetylated peptide […](ac)EFR” value (SEQ ID NO: 657, Isoform 1 of Clathrin heavy chain 1 [1264], CLTC) of the same compound?
A: 0.57 log 2

Q: And the “L/H ratio of acetylated peptide YK(ac)EALEQCR” value (SEQ ID NO: 658, Isoform 2 of Antigen peptide transporter 2 [356], TAP2)?
A: 0.57 log 2

Q: What about the “L/H ratio of acetylated peptide YELTGK(ac)FER” value (SEQ ID NO: 659, Annexin A6 [81], ANXA6) of the same compound?
A: 0.57 log 2
